From patent US4244967A, “Antiphlogistic pharmaceutical compositions containing a phenylethanolamine and methods of use” (priority 1978, dated 1981)
Where “and” joins values, the source holds several entries; their conditions need not be identical. Identical values can stand only once.

Tests used:
[1] = test system: human polymorphnuclear leucocytes (PMN); test: Inhibition of the release of lysosomal β-glucuronidase from human polymorphnuclear leucocytes (PMN) during phagocytosis of zymosan particles; assay type: cell-based; details: in vitro; for IC20: Homo sapiens, Leucocyte, 20% inhibition of release (EC20, not EC50), zymosan-phagocytosis, Fieller confidence limits given
Description: The compounds were tested for their inhibitory effect on the release of lyosomal enzymes (β-glucuronidase was the lysomal marker-enzyme) from human polymorphnuclear leucocytes (PMN) during the phagocytosis of zymosan particles. According to WEISSMANN, the release of lyosomal enzymes in the course of the phagocytosis of immune complexes plays a significant role for the "self perpetuation" in rheumatoid arthritis. The test was performed according to the method of WEISSMANN et al. [J. Exp. Med. 134, 149s-165s (1971)]. The buffer system and the incubation times were changed, the number of the zymosan particles and the number of PMN was standardized. From the inhibiting effects produced by the test substance in comparison with the zymosan control, an EC20 with confidence limits according to FIELLER (Quart. J. Pharm. Pharmacol. 17, 117-123 (1944) was calculated by linear regression analysis according to LINDER [Stat. Methoden, 4th Ed., 148-162, published by Birkhauser, Basel, Switzerland (1964)] as the end concentration of the test substance that produced a 20% inhibition of the release of lysosomal β-glucuronidasefrom human polymorphnuclear leucocytes in vitro during the zymosan-phagocytosis.
Effect on the release of lysosomal β-glucuronidase from human polymorph-nucleic leucocytes under zymosan-phagocytosis.

enteral absorption = assay type: in vivo; details: no data given
[2] = long-lasting in vivo activity compared with other β-mimetics; details: no data given

Row | enteral absorption (enteral absorption) | SMILES | IC20 [1] | in vivo activity, duration [2] | stronger inhibitor of the release of lysosomal enzymes than terbutaline sulfate ([1]; relative to terbutaline sulfate (B))
1 | – | CC(C)(C)NCC(O)c1cc(O)cc(O)c1 (centres unmarked) [B, reference compound] | 2.4 µM and 0.658 µg/mL | – | –
2 | very good | CCOC(=O)Nc1c(F)cc(C(O)CNC(C)(C)C)cc1C#N.Cl (centres unmarked) [Compound A, 1-(4-ethoxycarbonylamino-3-cyano-5-fluoro-phenyl)-2-tert. butylamino-ethanol hydrochloride] | 130 nM and 0.0468 µg/mL | long-lasting | about 18 times stronger
